According to ChEMBL document CHEMBL1126424, “Preparation of the enantiomers of the novel CA-sensitizer EMD 53 998” (Bioorg Med Chem Lett, 1992):

Tests used:
[1] = target: Phosphodiesterase 3 (Homo sapiens, UniProt Q14432+Q13370); experiment: Inhibition of guinea pig heart Phosphodiesterase 3; format: protein assay, Cavia porcellus; conditions: target entry is the homologue from another species
[2] = organism: Cavia porcellus; experiment: Increasing force in skinned fibers at constant buffered Ca-concentration; format: functional

SMILES | IC50 [1] [nM] | EC50 [2] [nM]
COc1ccc(C(=O)N2CCCc3cc(C4=NNC(=O)SC4C)ccc32)cc1OC (stereo in doubt; form 2) | 50 | > 100000
COc1ccc(C(=O)N2CCCc3cc(C4=NNC(=O)SC4C)ccc32)cc1OC (stereo in doubt; form 1) | 60 | 4800
COc1ccc(C(=O)N2CCCc3cc(C4=NNC(=O)SC4C)ccc32)cc1OC (stereo in doubt; form 3) | 1940 | 1700
